Test results reported in paper PMC10901556, “Conservation of Affinity Rather Than Sequence Underlies a Dynamic Evolution of the Motif-Mediated p53/MDM2 Interaction in Ray-Finned Fishes” (Molecular Biology and Evolution, 2024).
Values joined by “and” are separate entries in the source; they are usually repeats but may differ in a detail not shown here. Identical values can stand only once. Like-named read-outs stand apart in the source and are kept apart here. Where no end group is shown, it is not given here.

What was measured:
[1] = molecular target: T1, D. rerio MDM2 (Danio rerio, UniProt O42354); assay: Isothermal titration calorimetry; assay type: binding; details: 25 °C; for TΔS / ΔH / Kd: ITC
T1 construct: NusA-TEV-His6-PreScission site (N, cleaved yes); made in house; host or cells: Escherichia coli BL21 (DE3)
T1 sequence (O42354 with tags, fused parts or gaps): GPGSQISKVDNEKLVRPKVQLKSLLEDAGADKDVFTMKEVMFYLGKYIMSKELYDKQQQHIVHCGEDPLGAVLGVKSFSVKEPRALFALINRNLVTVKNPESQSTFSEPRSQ
Protocol: For ITC experiments, a MicroCal iTC200 instrument (GE Healthcare) was used, and the experiments were performed at 25 °C. The MDM2 protein and p53TAD peptides were dialyzed against the experimental buffer prior to experiments to avoid buffer mismatch. The concentration of D. rerio MDM2 in the cell was 11 μM and the concentration of p53TADD.rerio^17–32 and p53TADD.rerio^10–75 in the syringe was 118 and 116 μM, respectively. Results were analyzed using the built-in software and a 2-state binding model was assumed.

[2] = molecular target: MDM2 SWIB domain, Maylandia zebra; assay: Fluorescence polarization displacement assay; assay type: binding; details: for IC50 / Ki: M.zeb MDM2 2000 nM
[3] = molecular target: T2, MDM2D.rerio SWIB domain (Danio rerio, UniProt O42354); details: ref Mihalič et al. 2023; cited from earlier work
T2 construct: NusA-TEV-His6-PreScission (N, cleaved yes); made in house; host or cells: Escherichia coli BL21 (DE3)
T2 sequence (O42354 with tags, fused parts or gaps): T1 sequence (O42354 with tags, fused parts or gaps)
Description: Abstract The transcription factor and cell cycle regulator p53 is marked for degradation by the ubiquitin ligase MDM2. The interaction between these 2 proteins is mediated by a conserved binding motif in the disordered p53 transactivation domain (p53TAD) and the folded SWIB domain in MDM2. […] The interaction between the proteins is mediated by a conserved binding motif in the intrinsically disordered N-terminal transactivation domain (TAD) of p53 and a SWIB domain in MDM2 (Fig. 1). The interaction leads to MDM2-catalyzed ubiquitination and proteasomal degradation of p53. Phosphorylation of p53TAD increases affinity for the general transcriptional coactivators CBP/p300 a ...

[4] = molecular target: MDM2 SWIB domain, Lepisosteus oculatus; assay: Fluorescence polarization displacement assay; assay type: binding
[5] = molecular target: T2, MDM2D.rerio SWIB domain; assay: Fluorescence polarization displacement assay; assay type: binding
[6] = molecular target: MDM2 SWIB domain, Channa argus; assay: Fluorescence polarization displacement assay; assay type: binding; details: for IC50 / Ki: C.arg MDM2 1500 nM
[7] = molecular target: MDM2 SWIB domain, Takifugu rubripes; assay: Fluorescence polarization displacement assay; assay type: binding; details: for IC50 / Ki: T.rub MDM2 1500 nM
[8] = molecular target: T3, MDM2H.sapiens SWIB domain (Homo sapiens, UniProt Q00987); assay: Fluorescence polarization displacement assay; assay type: binding
T3 construct: NusA-TEV-His6-PreScission (N, cleaved yes); made in house; host or cells: Escherichia coli BL21 (DE3)

[9] = labeled probe 15 nM, replicate 1, read-out: IC50 [M] (IT)
[10] = labeled probe 15 nM, replicate 3, read-out: IC50 [M] (IT)
[11] = average of the replicates, probe 15 nM, Kd for probe […], read-out: Ki [nM] Average
[12] = average of the replicates, probe 15 nM, Kd for probe […], read-out: Ki [µM] Average
[13] = calculated from IC50, Kd for probe […], probe 15 nM, replicate 1, read-out: Ki
[14] = calculated from IC50, Kd for probe […], probe 15 nM, replicate 2, read-out: Ki
[15] = calculated from IC50, Kd for probe […], probe 15 nM, replicate 3, read-out: Ki
[16] = mean of the replicates, probe 15 nM, read-out: IC50 [nM], mean of the replicates
[17] = labeled probe 15 nM, replicate 2, read-out: IC50

Sequence of MDM2 SWIB domain, Channa argus (as listed by the source): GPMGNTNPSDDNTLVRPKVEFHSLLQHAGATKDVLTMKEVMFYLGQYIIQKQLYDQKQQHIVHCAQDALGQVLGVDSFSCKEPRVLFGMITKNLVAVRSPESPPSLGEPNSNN
Sequence of MDM2 SWIB domain, Maylandia zebra (as listed by the source): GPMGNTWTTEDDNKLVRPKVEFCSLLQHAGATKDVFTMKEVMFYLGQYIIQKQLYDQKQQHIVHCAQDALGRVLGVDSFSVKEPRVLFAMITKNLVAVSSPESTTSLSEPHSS
Sequence of MDM2 SWIB domain, Takifugu rubripes (as listed by the source): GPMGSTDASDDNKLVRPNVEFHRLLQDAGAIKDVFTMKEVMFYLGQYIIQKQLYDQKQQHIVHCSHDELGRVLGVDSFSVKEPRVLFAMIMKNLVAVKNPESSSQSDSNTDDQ
Sequence of MDM2 SWIB domain, Lepisosteus oculatus (as listed by the source): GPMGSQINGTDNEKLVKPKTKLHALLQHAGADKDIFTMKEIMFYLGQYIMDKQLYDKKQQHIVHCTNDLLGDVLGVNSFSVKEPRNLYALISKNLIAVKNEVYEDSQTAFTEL
T3 sequence (Q00987 with tags, fused parts or gaps): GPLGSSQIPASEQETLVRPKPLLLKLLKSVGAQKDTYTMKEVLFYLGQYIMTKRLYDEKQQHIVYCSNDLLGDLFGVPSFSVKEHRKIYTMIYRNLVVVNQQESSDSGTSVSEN

## Ac-EFAELWEKNLISIQP (N-terminus assumed) [D.rer p53 17-32 (G1K]
[1]; first replicate
  N (ITC stoichiometry): 0.74±0.01
  TΔS: 1.7 kcal/mol
  ΔH: -7.2 ± 0.1 kcal/mol
[1]; second replicate
  N (ITC stoichiometry): 0.76±0.01
  TΔS: 1.2 kcal/mol
  ΔH: -7.6 ± 0.1 kcal/mol

## GPMGMAEQGFEDLQLSQNLPFSQDSFKELWDQLPVAESLSVSLDTISAVNSSTTGHDETWRPDGTMDMFQLINDQQLAEHFDEKLFELPNDALPKDGVTPPAST [M.zeb p53 P1 full, expressed full-length zebra mbuna p53TAD paralog 1]
[2]; FP displacement of FITC-p53TADhuman^15–26 (15 nM) from MDM2 (2 μM), KD from IC50, 20 mM sodium phosphate pH 7.4, 150 mM NaCl, 1 mM TCEP
  Kd: 190 ± 20 nM
[2]; [9]
  IC50: 3.27e-06 M
[2]; labeled probe 15 nM, replicate 2, read-out: IC50 [M] (IT)
  IC50: 3.18e-06 M
[2]; [10]
  IC50: 2.72e-06 M
[2]; [11]
  Ki: 188 nM
[2]; [12]
  Ki: 190 nM
[2]; [13]
  Ki: 218 nM
[2]; [14]
  Ki: 206 nM
[2]; [15]
  Ki: 140 nM
[2]; [16]
  IC50: 3.06e-06 M

## p53TADD.rerio (residues 15 to 26): peptide corresponding to the conserved binding motif in p53TADD.rerio, earlier study (KNLIIQPPGGGS; UniProt P79734 15-26, looked up, fragment)
[3]
  affinity in binding assay: no affinity

## GPMGMADPEPEGLPLSQESFQELWNMVIVLHRAVPPENAQWPDLQSMLYTNELVPNAIDSLYEELEPHVSMPPQPMVSNPDGLAPSSST [L.ocu p53 full, expressed full-length spotted gar p53TAD]
[4]; FP displacement of FITC-p53TADhuman^15–26 (15 nM) from MDM2 (1 μM), KD from IC50, 20 mM sodium phosphate pH 7.4, 150 mM NaCl, 1 mM TCEP
  Kd: 85 ± 5 nM
[4]; equals the mean of the replicates, read-out: IC50 [nM], mean
  IC50: 2090 nM
[4]; mean of the replicates (n = 3 or 6), read-out: Ki [nM] Average
  Ki: 84.7 nM
[4]; mean of the replicates (n = 3 or 6), read-out: Ki [µM] Average
  Ki: 84.7 nM
[4]; replicate 1, MDM2 1000 nM, labeled probe 15 nM, read-out: IC50 [M] (IT)
  IC50: 2170 nM
[4]; replicate 1, calculated from IC50 with Kd for probe 78 nM, read-out: Ki
  Ki: 90.7 nM
[4]; replicate 2, MDM2 1000 nM, labeled probe 15 nM, read-out: IC50 [M] (IT)
  IC50: 2140 nM
[4]; replicate 2, calculated from IC50 with Kd for probe 78 nM, read-out: Ki
  Ki: 88.6 nM
[4]; replicate 3, MDM2 1000 nM, labeled probe 15 nM, read-out: IC50 [M] (IT)
  IC50: 1960 nM
[4]; replicate 3, calculated from IC50 with Kd for probe 78 nM, read-out: Ki
  Ki: 74.9 nM

## GPMGMAQNDSQEFAELWEKNLISIQPPGGGSCWDIINDEEYLPGSFDPNFFGNVLEEQPQPSTLPPTST* [D.rer p53 P2 full, expressed whole TAD region of D. rerio p53]
[5]; FP displacement of FITC-p53TADhuman^15–26 (15 nM) from MDM2 (1 μM or 1.5 μM, both printed), KD from IC50, 20 mM sodium phosphate pH 7.4, 150 mM NaCl, 1 mM TCEP, read-out: KD
  Kd: 49 ± 8 nM
[5]; FP displacement, printed in nM (text, Fig. S4A), read-out: KD
  Kd: 49 nM
[5]; ratio of KD values, FP displacement
  fold higher affinity than p53TAD^15–27D.rerio: more than 70 fold
[5]; read-out: IC50 [M] (IT)
  IC50: 1.73e-06 M and 1.93e-06 M and 1.69e-06 M
[5]; read-out: IC50 [nM], mean of the replicates (cell without heading below the column)
  IC50: 1.78e-06 M
[5]; read-out: Ki
  Ki: 42.6 nM and 65.1 nM and 39.2 nM
[5]; read-out: Ki [nM] Average
  Ki: 49 nM
[5]; read-out: Ki [µM] Average
  Ki: 49 nM
[1]; first replicate
  N (ITC stoichiometry): 0.79±0.01
  TΔS: 1.7 kcal/mol
  ΔH: -7.8 ± 0.1 kcal/mol
[1]; second replicate
  N (ITC stoichiometry): 0.74±0.01
  TΔS: 2.0 kcal/mol
  ΔH: -7.6 ± 0.1 kcal/mol
[1]; MDM2 11 μM in the cell, approximate value
  Kd: ~100 nM
[1]; one of two replicates, the first printed for this construct in Fig. S5 (replicate number not assignable)
  Kd: 100 ± 20 nM
[1]; one of two replicates, the second printed for this construct in Fig. S5 (replicate number not assignable)
  Kd: 100 ± 10 nM

## GPMGMMEEQGFESLPLSQDSFRELWESVVTPSISTIPPAPEVPQDTMYMMLMNDQVLADGFDEKLFELPPESSTKDGVVPPSST [C.arg p53 P1 full, expressed full-length northern snakehead p53TAD paralog 1]
[6]; [9]
  IC50: 1.82e-06 M
[6]; [17]
  IC50: 1.47e-06 M
[6]; [10]
  IC50: 1.52e-06 M
[6]; FP displacement of FITC-p53TADhuman^15–26 (15 nM) from MDM2 (1.5 μM), KD from IC50, 20 mM sodium phosphate pH 7.4, 150 mM NaCl, 1 mM TCEP
  Kd: 100 ± 30 nM
[6]; [11]
  Ki: 98.6 nM
[6]; [12]
  Ki: 98.6 nM
[6]; [13]
  Ki: 153 nM
[6]; [14]
  Ki: 65.5 nM
[6]; [15]
  Ki: 77.8 nM
[6]; [16]
  IC50: 1.6e-06 M

## GPMGMEDEGFSLPLSQDTFQDLWENVAAPSIVTIPTTSLENEQWHQELLMNYPELPFNEELFNLPSEMASKDSANLSTPT [T.rub p53 P1 full, expressed full-length Japanese puffer p53TAD paralog 1]
[7]; FP displacement of FITC-p53TADhuman^15–26 (15 nM) from MDM2, KD from IC50, 20 mM sodium phosphate pH 7.4, 150 mM NaCl, 1 mM TCEP
  Kd: 470 ± 30 nM
[7]; [9]
  IC50: 4.93e-06 M
[7]; [17]
  IC50: 4.16e-06 M
[7]; [10]
  IC50: 4.19e-06 M
[7]; labeled probe 15 nM, replicate 4, read-out: IC50 [M] (IT)
  IC50: 3.43e-06 M
[7]; labeled probe 15 nM, replicate 5, read-out: IC50 [M] (IT)
  IC50: 4.05e-06 M
[7]; labeled probe 15 nM, replicate 6, read-out: IC50 [M] (IT)
  IC50: 4.53e-06 M
[7]; average of the replicates, probe 15 nM, Kd for probe 290 nM, read-out: Ki [nM] Average
  Ki: 475 nM
[7]; average of the replicates, probe 15 nM, Kd for probe 290 nM, read-out: Ki [µM] Average
  Ki: 475 nM
[7]; calculated from IC50, Kd for probe 290 nM, probe 15 nM, replicate 1, read-out: Ki
  Ki: 592 nM
[7]; calculated from IC50, Kd for probe 290 nM, probe 15 nM, replicate 2, read-out: Ki
  Ki: 467 nM
[7]; calculated from IC50, Kd for probe 290 nM, probe 15 nM, replicate 3, read-out: Ki
  Ki: 471 nM
[7]; calculated from IC50, Kd for probe 290 nM, probe 15 nM, replicate 4, read-out: Ki
  Ki: 347 nM
[7]; calculated from IC50, Kd for probe 290 nM, probe 15 nM, replicate 5, read-out: Ki
  Ki: 449 nM
[7]; calculated from IC50, Kd for probe 290 nM, probe 15 nM, replicate 6, read-out: Ki
  Ki: 527 nM
[7]; [16]
  IC50: 4.21e-06 M

## Ac-SQEFAELWEKNL [D.rer p53 P2 short]
[5]
  IC50: 3.39e-05 M
  Kd: 3600 ± 300 nM
[8]
  IC50: 31800 nM
  Ki: 4330 nM

## GSQNDSQEFAELWEKNLISIQPPGGGSCWDIINDEEYLPGSFDPN [D.rer p53 P2 longer]
[5]
  IC50: 1.64e-06 M
